Results on 23 molecules are retold here after patent US20210253575A1, “PYRROLIDINE AMINE COMPOUNDS FOR THE TREATMENT OF AUTOIMMUNE DISEASE” (Hoffmann-La Roche Inc., priority 2018, published 2021).

Each structure is given as a SMILES string.

This assay concerns the target T1, human TLR7 (Homo sapiens, UniProt Q9NYK1).
T1 sequence (Q9NYK1 27-1049): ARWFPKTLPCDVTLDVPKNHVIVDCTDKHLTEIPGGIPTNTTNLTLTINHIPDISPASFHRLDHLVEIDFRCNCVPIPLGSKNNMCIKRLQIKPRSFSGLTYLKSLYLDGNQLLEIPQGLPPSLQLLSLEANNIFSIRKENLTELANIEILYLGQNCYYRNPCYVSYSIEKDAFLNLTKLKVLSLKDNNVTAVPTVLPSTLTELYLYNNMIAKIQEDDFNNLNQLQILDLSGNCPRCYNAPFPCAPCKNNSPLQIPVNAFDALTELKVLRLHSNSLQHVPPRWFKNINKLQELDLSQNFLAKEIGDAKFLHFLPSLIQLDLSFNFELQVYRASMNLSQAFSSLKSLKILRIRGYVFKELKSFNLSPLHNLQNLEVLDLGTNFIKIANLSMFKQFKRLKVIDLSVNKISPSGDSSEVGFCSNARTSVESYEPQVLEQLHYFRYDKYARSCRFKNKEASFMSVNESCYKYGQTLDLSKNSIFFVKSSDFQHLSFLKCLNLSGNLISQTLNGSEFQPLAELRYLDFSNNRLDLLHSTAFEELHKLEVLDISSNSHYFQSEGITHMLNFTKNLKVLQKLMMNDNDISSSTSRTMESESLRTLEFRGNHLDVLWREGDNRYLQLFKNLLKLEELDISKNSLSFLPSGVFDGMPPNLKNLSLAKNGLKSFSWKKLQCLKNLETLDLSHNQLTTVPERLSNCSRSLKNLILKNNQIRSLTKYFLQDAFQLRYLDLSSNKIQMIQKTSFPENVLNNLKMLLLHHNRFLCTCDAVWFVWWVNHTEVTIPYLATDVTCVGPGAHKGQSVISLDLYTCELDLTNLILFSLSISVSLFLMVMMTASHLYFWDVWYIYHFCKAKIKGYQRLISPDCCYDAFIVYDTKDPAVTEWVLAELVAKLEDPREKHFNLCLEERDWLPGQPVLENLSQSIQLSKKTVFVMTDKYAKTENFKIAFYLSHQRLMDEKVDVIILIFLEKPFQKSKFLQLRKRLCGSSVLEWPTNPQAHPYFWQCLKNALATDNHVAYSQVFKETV
Put plainly: HEK293-Blue-hTLR-7 cells assay (SEAP reporter, R848 stimulation). It is filed as cell-based. Conditions: HEK293-Blue-hTLR7 cells, R848 ligand, 20 hrs incubation. The protocol: The following tests were carried out in order to determine the activity of the compounds of formula (I) in HEK293-Blue-hTLR-7/8/9 cells assay.
HEK293-Blue-hTLR-7 Cells Assay:
A stable HEK293-Blue-hTLR-7 cell line was purchased from InvivoGen (Cat. #: hkb-htlr7, San Diego, Calif., USA). These cells were originally designed for studying the stimulation of human TLR7 by monitoring the activation of NF-κB. A SEAP (secreted embryonic alkaline phosphatase) reporter gene was placed under the control of the IFN-β minimal promoter fused to five NF-κB and AP-1-binding sites. The SEAP was induced by activating NF-κB and AP-1 via stimulating HEK-Blue hTLR7 cells with TLR7 ligands. Therefore the reporter expression was declined by TLR7 antagonist under the stimulation of a ligand, such as R848 (Resiquimod), for incubation of 20 hrs. The cell culture supernatant SEAP reporter activity was determined using QUANTI-Blue™ kit (Cat. #: rep-qb1, Invivogen, San Diego, Ca, USA) at a wavelength of 640 nm, a detection medium that turns purple or blue in the presence of alkaline phosphatase.
HEK293-Blue-hTLR7 cells were incubated at a density of 250,000-450,000 cells/mL in a volume of 170 μL in a 96-well plate in Dulbecco's Modified Eagle's medium (DMEM) containing 4.5 g/L glucose, 50 U/mL penicillin, […], […], 2 mM L-glutamine, 10% (v/v) heat-inactivated fetal bovine serum with addition of 20 μL test compound in a serial dilution in the presence of final DMSO at 1% and 10 μL of 20 uM R848 in above DMEM, perform incubation under 37° C. in a CO2 incubator for 20 hrs. Then 20 μL of the supernatant from each well was incubated with 180 μL Quanti-blue substrate solution at 37° C. for 2 hrs and the absorbance was read at 620-655 nm using a spectrophotometer. The signalling pathway that TLR7 activation leads to downstream NF-κB activation has been widely accepted, and therefore similar reporter assay was modified for evaluating TLR7 antagonist.
`N#Cc1ccc(N2CC(CN3CCC4(CC3)CNCCO4)C3(CC3)C2)c2nccnc12` (centres unmarked) [Example 49, 8-[7-(1-Oxa-4,9-diazaspiro[5.5]undecan-9-ylmethyl)-5-azaspiro[2.4]heptan-5-yl]quinoxaline-5-carbonitrile]: the half-inhibitory concentration (IC50) stood at 153 nM. This lies in the sub-micromolar range.
`N#Cc1ccc(N2CC(CN3CC4CCNCC43)C3(CC3)C2)c2nccnc12` (centres unmarked) [Example 50, 8-[7-(3,8-Diazabicyclo[4.2.0]octan-8-ylmethyl)-5-azaspiro[2.4]heptan-5-yl]quinoxaline-5-carbonitrile] showed an IC50 of 232 nM.
In the case of `N#Cc1ccc(N2C[C@H](CN3CCC(N)CC3)[C@@H](C(F)(F)F)C2)c2nccnc12` [Example 51, 8-[(3S,4R)-3-[(4-amino-1-piperidyl)methyl]-4-(trifluoromethyl)pyrrolidin-1-yl]quinoxaline-5-carbonitrile] it was 90 nM; in that of `N#Cc1ccc(N2C[C@H](CN3CCC(N4CCNCC4)CC3)[C@@H](C(F)(F)F)C2)c2cccnc12` [Example 52, 5-[(3S,4R)-3-[(4-piperazin-1-yl-1-piperidyl)methyl]-4-(trifluoromethyl)pyrrolidin-1-yl]quinoline-8-carbonitrile], 39 nM.
Consider `N#Cc1ccc(N2C[C@H](CN3CC4(CC(N)C4)C3)[C@@H](C(F)(F)F)C2)c2cccnc12` [Example 53, 5-[(3S,4R)-3-[(6-Amino-2-azaspiro[3.3]heptan-2-yl)methyl]-4-(trifluoromethyl)pyrrolidin-1-yl]quinoline-8-carbonitrile], for which inhibition was half-maximal at 115 nM (IC50).
In the case of `N#Cc1ccc(N2C[C@H](CN3CCC4(CCNC4)CC3)[C@@H](C(F)(F)F)C2)c2cccnc12` [Example 54, 5-[(3S,4R)-3-(2,8-Diazaspiro[4.5]decan-8-ylmethyl)-4-(trifluoromethyl)pyrrolidin-1-yl]quinoline-8-carbonitrile] it was 91 nM.
In the case of `N#Cc1ccc(N2C[C@H](CN3CCC4(CCCNC4)CC3)[C@@H](C(F)(F)F)C2)c2cccnc12` [Example 55, 5-[(3S,4R)-3-(2,9-Diazaspiro[5.5]undecan-9-ylmethyl)-4-(trifluoromethyl)pyrrolidin-1-yl]quinoline-8-carbonitrile] it was 111 nM.
In the case of `N#Cc1ccc(N2C[C@H](CN3CCC4(CCNCC4)C3)[C@@H](C(F)(F)F)C2)c2cccnc12` [Example 56, 5-[(3S,4R)-3-(2,8-Diazaspiro[4.5]decan-2-ylmethyl)-4-(trifluoromethyl)pyrrolidin-1-yl]quinoline-8-carbonitrile] it was 113 nM; in that of `N#Cc1ccc(N2C[C@H](CN3CCCC4(CCNCC4)C3)[C@@H](C(F)(F)F)C2)c2cccnc12` [Example 57, 5-[(3S,4R)-3-(2,9-Diazaspiro[5.5]undecan-2-ylmethyl)-4-(trifluoromethyl)pyrrolidin-1-yl]quinoline-8-carbonitrile], 73 nM.
As to `N#Cc1ccc(N2CC(CN3CCC(N4CCOCC4)CC3)C3(CC3)C2)c2nccnc12` (centres unmarked) [Example 58, 8-[7-[(4-Morpholino-1-piperidyl)methyl]-5-azaspiro[2.4]heptan-5-yl]quinoxaline-5-carbonitrile], the IC50 was found to be 313 nM. This IC50 is about 4.3-fold higher than that of the molecule before.
`N#Cc1ccc(N2C[C@H](CN3CCNCC3)[C@@H](C(F)(F)F)C2)c2nccnc12` [Example 59, 8-[(3S,4R)-3-(Piperazin-1-ylmethyl)-4-(trifluoromethyl)pyrrolidin-1-yl]quinoxaline-5-carbonitrile] yielded an IC50 of 18 nM.
Then `N#Cc1ccc(N2C[C@H](CN3CCC(N4CCCC4)CC3)[C@@H](C(F)(F)F)C2)c2nccnc12` [Example 60, 8-[(3S,4R)-3-[(4-Pyrrolidin-1-yl-1-piperidyl)methyl]-4-(trifluoromethyl)pyrrolidin-1-yl]quinoxaline-5-carbonitrile], with 29 nM; and `N#Cc1ccc(N2C[C@H](CN3CCC(N4CCCCC4)CC3)[C@@H](C(F)(F)F)C2)c2nccnc12` [Example 61, 8-[(3S,4R)-3-[[4-(1-Piperidyl)-1-piperidyl]methyl]-4-(trifluoromethyl)pyrrolidin-1-yl]quinoxaline-5-carbonitrile], with 22 nM; and `N#Cc1ccc(N2C[C@H](CN3CCC(N4CCCCCC4)CC3)[C@@H](C(F)(F)F)C2)c2nccnc12` [Example 62, 8-[(3S,4R)-3-[[4-(Azepan-1-yl)-1-piperidyl]methyl]-4-(trifluoromethyl)pyrrolidin-1-yl]quinoxaline-5-carbonitrile], with 34 nM.
Regarding `N#Cc1ccc(N2C[C@H](CN3C4CCC3CC(N)C4)[C@@H](C(F)(F)F)C2)c2nccnc12` (stereo partly drawn) [Example 63, 8-[(3S,4R)-3-[(3-amino-8-azabicyclo[3.2.1]octan-8-yl)methyl]-4-(trifluoromethyl)pyrrolidin-1-yl]quinoxaline-5-carbonitrile], the half-maximal inhibitory concentration (IC50) came to 57 nM. This IC50 is about 1.7-fold higher than that of the molecule before.
For the molecule `N#Cc1ccc(N2C[C@H](CN3CCC(N)C(F)(F)C3)[C@@H](C(F)(F)F)C2)c2nccnc12` (stereo partly drawn) [Example 64, 8-[(3S,4R)-3-[(4-amino-3,3-difluoro-1-piperidyl)methyl]-4-(trifluoromethyl)pyrrolidin-1-yl]quinoxaline-5-carbonitrile], the IC50 was found to be 36 nM.
The molecule `N#Cc1ccc(N2CC(CN3CCC4(CCCCN4)CC3)C3(CC3)C2)c2nccnc12` (centres unmarked) [Example 65, 8-[7-(1,9-Diazaspiro[5.5]undecan-9-ylmethyl)-5-azaspiro[2.4]heptan-5-yl]quinoxaline-5-carbonitrile] returned an IC50 of 108 nM.
In the case of `N#Cc1ccc(N2CC(CN3CCC4NCC4C3)C3(CC3)C2)c2nccnc12` (centres unmarked) [Example 66, 8-[7-(3,7-Diazabicyclo[4.2.0]octan-3-ylmethyl)-5-azaspiro[2.4]heptan-5-yl]quinoxaline-5-carbonitrile] it was 63 nM; in that of `N#Cc1ccc(N2CC(CN3CCOC4(CCNCC4)C3)C3(CC3)C2)c2nccnc12` (centres unmarked) [Example 67, 8-[7-(1-Oxa-4,9-diazaspiro[5.5]undecan-4-ylmethyl)-5-azaspiro[2.4]heptan-5-yl]quinoxaline-5-carbonitrile], 131 nM.
Then `N#Cc1ccc(N2CC(CN3CCC(N)CC3)C3(CC3)C2)c2nccnc12` (centres unmarked) [Example 68, 8-[7-[(4-Amino-1-piperidyl)methyl]-5-azaspiro[2.4]heptan-5-yl]quinoxaline-5-carbonitrile], with 75 nM.
Then `N#Cc1ccc(N2C[C@H](CN3CCCC(C(N)=O)C3)[C@@H](C(F)(F)F)C2)c2nccnc12` (stereo partly drawn) [Example 69, 1-[[(3S,4R)-1-(S-cyanoquinoxalin-5-yl)-4-(trifluoromethyl)pyrrolidin-3-yl]methyl]piperidine-3-carboxamide], with 135 nM.
Take `N#Cc1ccc(N2C[C@H](CN3CCC4(CC3)CNCCO4)[C@@H](C(F)(F)F)C2)c2nccnc12` [Example 70, 8-[(3S,4R)-3-(1-oxa-4,9-diazaspiro[5.5]undecan-9-ylmethyl)-4-(trifluoromethyl)pyrrolidin-1-yl]quinoxaline-5-carbonitrile]: inhibition was half-maximal at 12 nM (IC50). Against the preceding molecule, the IC50 is about 11-fold lower.
In the case of `N#Cc1ccc(N2C[C@H](CNC3CCNCC3)[C@@H](C(F)(F)F)C2)c2nccnc12` [Example 71, 8-[(3S,4R)-3-[(4-piperidylamino)methyl]-4-(trifluoromethyl)pyrrolidin-1-yl]quinoxaline-5-carbonitrile] it was 39 nM.
